Source: US20250243171A1, “QUINAZOLINE COMPOUNDS FOR TREATMENT OF DISEASE” (Arthrosi Therapeutics, Inc., priority 2021, published 2025)

What was measured:
Assay in all cases: EC50 assay: Ba/F3 stable cell proliferation (CCK-8, 72 h)
Assay type in all cases: cell-based
Ba/F3 stable cells [1] = molecular target: T1, Ba/F3 stable cells (Homo sapiens, UniProt P04626, DUP772-775, cells depend on it); conditions: Ba/F3-HER2 A775-G776insYVMA cells
T1 construct: EC50 Ba/F3-HER2 A775-G776insYVMA; other: Ba/F3-HER2 A775-G776insYVMA cells, 72 h, CCK-8
Procedure, shortened: (§1)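 Ba/F3 stable cells were seeded at 4,000 cells/90 μL/well in 96-well plates and held 2 h at 37° C. in 5% CO2, then given 10 μL of serially titrated compound (0.1% DMSO final). After 72 h at 37° C., CCK-8 reagent was added for 4 hours and absorbance read at 450 nm to derive EC50.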

Ba/F3 stable cells [2] = molecular target: T2, Ba/F3 stable cells (Homo sapiens, UniProt P00533, DUP767-769, cells depend on it); conditions: Ba/F3-EGFR V769-D770insASV cells
T2 construct: EC50 Ba/F3-EGFR V769-D770insASV; other: Ba/F3-EGFR V769-D770insASV cells, 72 h, CCK-8
Procedure, shortened: as §1

Ba/F3 stable cells [3] = molecular target: T3, Ba/F3 stable cells (Homo sapiens, UniProt P00533, DUP768-770, cells depend on it); conditions: Ba/F3-EGFR D770-N771insSVD cells
T3 construct: EC50 Ba/F3-EGFR D770-N771insSVD; other: Ba/F3-EGFR D770-N771insSVD cells, 72 h, CCK-8
Procedure, shortened: as §1

Ba/F3 stable cells [4] = molecular target: T4, Ba/F3 stable cells (Homo sapiens, UniProt P00533, INS763FQEA, cells depend on it); conditions: Ba/F3-EGFR A763-Y764insFQEA cells
T4 construct: EC50 Ba/F3-EGFR A763-Y764insFQEA; other: Ba/F3-EGFR A763-Y764insFQEA cells, 72 h, CCK-8
Procedure, shortened: as §1

Ba/F3 stable cells [5] = molecular target: T5, Ba/F3 stable cells (Homo sapiens, UniProt P00533, T790M/L858R, cells depend on it); conditions: Ba/F3-EGFR L858R-T790M cells
T5 construct: EC50 Ba/F3-EGFR L858R-T790M; other: Ba/F3-EGFR L858R-T790M cells, 72 h, CCK-8
Procedure, shortened: as §1

Ba/F3 stable cells [6] = molecular target: T6, Ba/F3 stable cells (Homo sapiens, UniProt P00533, DUP771-773, cells depend on it); conditions: Ba/F3-EGFR H773-V774insNPH cells
T6 construct: EC50 Ba/F3-EGFR H773-V774insNPH; other: Ba/F3-EGFR H773-V774insNPH cells, 72 h, CCK-8
Procedure, shortened: as §1

T6 sequence (P00533 with tags, fused parts or gaps DUP771-773): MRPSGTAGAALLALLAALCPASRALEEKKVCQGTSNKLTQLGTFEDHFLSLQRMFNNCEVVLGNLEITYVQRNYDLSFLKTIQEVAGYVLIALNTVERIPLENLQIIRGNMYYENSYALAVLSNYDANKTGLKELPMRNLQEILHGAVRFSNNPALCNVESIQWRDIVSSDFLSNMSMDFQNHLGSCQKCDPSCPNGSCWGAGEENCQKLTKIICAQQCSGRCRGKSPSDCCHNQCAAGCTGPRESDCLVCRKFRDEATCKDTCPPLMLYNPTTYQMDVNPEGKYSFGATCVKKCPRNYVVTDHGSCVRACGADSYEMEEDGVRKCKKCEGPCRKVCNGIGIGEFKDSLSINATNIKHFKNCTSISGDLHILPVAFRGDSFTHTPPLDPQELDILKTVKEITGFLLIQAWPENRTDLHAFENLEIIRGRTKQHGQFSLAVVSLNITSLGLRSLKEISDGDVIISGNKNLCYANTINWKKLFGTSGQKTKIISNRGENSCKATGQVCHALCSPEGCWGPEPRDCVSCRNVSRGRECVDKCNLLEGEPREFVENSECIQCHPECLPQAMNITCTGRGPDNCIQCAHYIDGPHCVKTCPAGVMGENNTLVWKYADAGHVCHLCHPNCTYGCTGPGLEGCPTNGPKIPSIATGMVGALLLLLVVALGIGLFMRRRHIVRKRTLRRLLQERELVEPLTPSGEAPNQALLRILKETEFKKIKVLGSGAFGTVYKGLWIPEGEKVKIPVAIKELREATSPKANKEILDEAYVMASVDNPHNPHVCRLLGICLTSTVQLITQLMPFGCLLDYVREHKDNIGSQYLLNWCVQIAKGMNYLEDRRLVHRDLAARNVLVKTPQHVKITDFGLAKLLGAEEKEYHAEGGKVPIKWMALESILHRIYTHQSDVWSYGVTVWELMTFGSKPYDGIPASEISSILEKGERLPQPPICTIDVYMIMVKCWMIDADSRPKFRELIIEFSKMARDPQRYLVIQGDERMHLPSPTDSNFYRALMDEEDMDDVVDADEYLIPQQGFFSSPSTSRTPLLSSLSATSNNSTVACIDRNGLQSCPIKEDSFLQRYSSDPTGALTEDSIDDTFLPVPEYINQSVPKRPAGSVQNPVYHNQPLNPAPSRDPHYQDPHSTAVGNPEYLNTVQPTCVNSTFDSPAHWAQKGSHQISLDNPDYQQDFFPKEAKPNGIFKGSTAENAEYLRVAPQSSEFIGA
T1 sequence (P04626 with tags, fused parts or gaps DUP772-775): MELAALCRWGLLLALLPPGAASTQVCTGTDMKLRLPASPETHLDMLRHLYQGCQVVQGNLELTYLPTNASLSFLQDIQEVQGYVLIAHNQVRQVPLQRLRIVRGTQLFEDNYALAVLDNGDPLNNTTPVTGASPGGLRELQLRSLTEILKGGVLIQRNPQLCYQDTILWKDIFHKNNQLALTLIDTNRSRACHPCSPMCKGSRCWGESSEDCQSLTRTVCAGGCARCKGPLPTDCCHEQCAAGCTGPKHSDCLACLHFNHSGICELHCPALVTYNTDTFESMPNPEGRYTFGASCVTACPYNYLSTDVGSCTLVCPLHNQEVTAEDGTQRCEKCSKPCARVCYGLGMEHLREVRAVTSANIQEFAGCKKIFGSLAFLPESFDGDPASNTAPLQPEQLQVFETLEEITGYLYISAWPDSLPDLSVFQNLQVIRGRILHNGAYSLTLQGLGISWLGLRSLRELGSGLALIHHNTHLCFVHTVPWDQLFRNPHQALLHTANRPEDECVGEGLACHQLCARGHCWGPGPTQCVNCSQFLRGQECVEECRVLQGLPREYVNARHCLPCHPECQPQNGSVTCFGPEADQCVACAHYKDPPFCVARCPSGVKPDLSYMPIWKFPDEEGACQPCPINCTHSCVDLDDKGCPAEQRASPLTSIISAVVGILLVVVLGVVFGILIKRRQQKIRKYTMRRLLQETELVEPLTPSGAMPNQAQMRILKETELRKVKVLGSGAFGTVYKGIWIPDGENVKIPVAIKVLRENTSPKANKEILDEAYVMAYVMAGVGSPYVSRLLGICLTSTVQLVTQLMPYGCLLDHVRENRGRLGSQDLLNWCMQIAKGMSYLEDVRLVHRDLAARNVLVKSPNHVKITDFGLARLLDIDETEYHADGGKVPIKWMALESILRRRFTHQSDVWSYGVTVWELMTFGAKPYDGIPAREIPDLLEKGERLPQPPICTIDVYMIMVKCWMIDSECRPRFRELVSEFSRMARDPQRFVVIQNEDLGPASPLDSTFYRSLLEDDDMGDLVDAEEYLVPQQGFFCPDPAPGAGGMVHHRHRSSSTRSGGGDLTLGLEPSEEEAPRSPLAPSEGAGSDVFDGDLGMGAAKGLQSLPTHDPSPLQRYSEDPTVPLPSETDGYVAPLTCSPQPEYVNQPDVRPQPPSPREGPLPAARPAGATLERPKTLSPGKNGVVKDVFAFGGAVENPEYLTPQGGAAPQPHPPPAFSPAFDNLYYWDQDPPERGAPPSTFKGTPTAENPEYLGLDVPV
T3 sequence (P00533 with tags, fused parts or gaps DUP768-770): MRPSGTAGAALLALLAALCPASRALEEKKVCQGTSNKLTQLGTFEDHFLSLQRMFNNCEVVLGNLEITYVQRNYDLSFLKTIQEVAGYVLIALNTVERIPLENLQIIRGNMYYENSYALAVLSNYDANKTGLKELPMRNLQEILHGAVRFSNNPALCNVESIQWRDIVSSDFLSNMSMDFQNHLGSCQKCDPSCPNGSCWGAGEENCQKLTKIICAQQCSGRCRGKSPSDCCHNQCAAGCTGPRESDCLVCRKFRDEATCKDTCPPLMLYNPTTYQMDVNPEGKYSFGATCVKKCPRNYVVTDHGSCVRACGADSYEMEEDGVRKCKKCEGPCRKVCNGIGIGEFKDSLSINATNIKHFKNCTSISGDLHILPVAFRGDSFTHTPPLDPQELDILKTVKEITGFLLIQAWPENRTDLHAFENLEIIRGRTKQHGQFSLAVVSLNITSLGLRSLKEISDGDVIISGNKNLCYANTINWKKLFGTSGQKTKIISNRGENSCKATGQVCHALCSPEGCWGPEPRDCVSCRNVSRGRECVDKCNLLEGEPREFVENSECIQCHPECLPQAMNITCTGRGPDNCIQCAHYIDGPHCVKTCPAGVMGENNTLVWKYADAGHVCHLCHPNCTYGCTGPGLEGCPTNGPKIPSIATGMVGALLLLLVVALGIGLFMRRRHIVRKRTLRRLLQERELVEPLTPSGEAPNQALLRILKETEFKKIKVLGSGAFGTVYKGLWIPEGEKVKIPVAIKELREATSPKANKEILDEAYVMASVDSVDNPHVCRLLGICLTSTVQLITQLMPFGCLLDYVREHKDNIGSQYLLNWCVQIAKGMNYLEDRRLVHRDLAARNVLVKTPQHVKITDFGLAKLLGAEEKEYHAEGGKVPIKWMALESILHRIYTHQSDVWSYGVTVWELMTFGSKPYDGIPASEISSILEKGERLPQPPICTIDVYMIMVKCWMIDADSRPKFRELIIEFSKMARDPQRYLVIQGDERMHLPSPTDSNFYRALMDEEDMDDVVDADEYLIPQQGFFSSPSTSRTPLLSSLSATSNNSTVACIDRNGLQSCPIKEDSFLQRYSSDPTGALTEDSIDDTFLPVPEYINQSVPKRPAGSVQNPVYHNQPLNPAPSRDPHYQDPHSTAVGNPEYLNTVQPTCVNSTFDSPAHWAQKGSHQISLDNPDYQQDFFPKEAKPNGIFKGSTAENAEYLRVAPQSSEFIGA
T5 sequence (P00533 whole entry T790M/L858R): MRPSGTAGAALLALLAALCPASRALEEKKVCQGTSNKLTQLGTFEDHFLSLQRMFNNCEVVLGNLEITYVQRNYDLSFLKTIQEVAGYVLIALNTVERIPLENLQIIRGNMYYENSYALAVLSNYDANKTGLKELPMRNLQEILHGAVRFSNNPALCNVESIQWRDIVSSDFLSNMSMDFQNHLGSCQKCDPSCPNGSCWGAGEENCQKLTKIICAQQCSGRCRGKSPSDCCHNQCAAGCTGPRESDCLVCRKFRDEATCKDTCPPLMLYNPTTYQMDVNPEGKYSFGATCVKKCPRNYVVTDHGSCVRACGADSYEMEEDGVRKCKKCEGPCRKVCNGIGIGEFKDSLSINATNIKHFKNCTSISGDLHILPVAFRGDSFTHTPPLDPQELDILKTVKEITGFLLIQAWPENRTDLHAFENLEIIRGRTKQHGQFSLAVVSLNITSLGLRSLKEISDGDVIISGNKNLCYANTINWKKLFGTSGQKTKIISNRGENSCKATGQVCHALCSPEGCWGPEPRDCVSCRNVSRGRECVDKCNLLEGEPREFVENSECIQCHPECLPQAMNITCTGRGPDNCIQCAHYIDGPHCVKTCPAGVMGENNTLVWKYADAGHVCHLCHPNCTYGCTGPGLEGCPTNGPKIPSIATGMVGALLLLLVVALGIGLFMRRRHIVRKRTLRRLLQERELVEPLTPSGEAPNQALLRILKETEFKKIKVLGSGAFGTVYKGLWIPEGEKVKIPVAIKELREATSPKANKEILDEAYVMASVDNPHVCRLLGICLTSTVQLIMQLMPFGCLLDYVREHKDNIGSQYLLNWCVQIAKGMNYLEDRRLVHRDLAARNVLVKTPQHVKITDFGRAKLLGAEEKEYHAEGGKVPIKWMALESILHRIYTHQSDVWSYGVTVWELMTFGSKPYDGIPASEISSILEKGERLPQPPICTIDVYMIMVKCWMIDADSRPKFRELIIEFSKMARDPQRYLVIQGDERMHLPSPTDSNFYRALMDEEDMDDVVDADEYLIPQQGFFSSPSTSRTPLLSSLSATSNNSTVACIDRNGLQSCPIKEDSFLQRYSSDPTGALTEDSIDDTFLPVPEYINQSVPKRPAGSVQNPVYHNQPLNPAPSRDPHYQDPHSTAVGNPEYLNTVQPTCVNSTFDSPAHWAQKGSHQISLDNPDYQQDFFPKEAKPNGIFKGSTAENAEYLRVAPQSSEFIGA

SMILES	EC50 (Ba/F3 stable cells [1])	EC50 (Ba/F3 stable cells [2])	EC50 (Ba/F3 stable cells [3])	EC50 (Ba/F3 stable cells [4])	EC50 (Ba/F3 stable cells [5])	EC50 (Ba/F3 stable cells [6])
C=CC(=O)NC1CC(Oc2cc3c(Nc4ccc(C)c5c4CCC5)ncnc3cc2OC)C1 (stereo not drawn) [Compound 67, N-(3-((7-methoxy-4-((7-methyl-2,3-dihydro-1H-inden-4-yl)amino)quinazolin-6-yl)oxy)cyclobutyl)acrylamide]	> 1000 nM	> 1000 nM	> 1000 nM	200 to 1000 nM	> 1000 nM	> 1000 nM
C=CC(=O)NC1CC(Oc2cc3c(Nc4ccc(F)c5c4CCC5=O)ncnc3cc2OC)C1 (stereo not drawn) [Compound 68, N-(3-((4-((7-fluoro-1-oxo-2,3-dihydro-1H-inden-4-yl)amino)-7-methoxyquinazolin-6-yl)oxy)cyclobutyl)acrylamide]	> 1000 nM	> 1000 nM	> 1000 nM	> 1000 nM	> 1000 nM	> 1000 nM
C=CC(=O)NC1CC(Oc2cc3c(Nc4ccc(F)c5c4CCC5O)ncnc3cc2OC)C1 (stereo not drawn) [Compound 69, N-(3-((4-((7-fluoro-1-hydroxy-2,3-dihydro-1H-inden-4-yl)amino)-7-methoxyquinazolin-6-yl)oxy)cyclobutyl)acrylamide]	> 1000 nM	> 1000 nM	> 1000 nM	> 1000 nM	> 1000 nM	> 1000 nM
C=CC(=O)NC1CC(Oc2cc3c(Nc4ccc5c(c4)CCCC5=O)ncnc3cc2OC)C1 (stereo not drawn) [Compound 70, N-(3-((7-methoxy-4-((5-oxo-5,6,7,8-tetrahydronaphthalen-2-yl)amino)quinazolin-6-yl)oxy)cyclobutyl)acrylamide]	> 1000 nM	> 1000 nM	> 1000 nM	> 1000 nM	> 1000 nM	> 1000 nM
C=CC(=O)NC1CC(Oc2cc3c(Nc4ccc5c(c4)CCCC5O)ncnc3cc2OC)C1 (stereo not drawn) [Compound 71, N-(3-((4-((5-hydroxy-5,6,7,8-tetrahydronaphthalen-2-yl)amino)-7-methoxyquinazolin-6-yl)oxy)cyclobutyl)acrylamide]	> 1000 nM	> 1000 nM	> 1000 nM	> 1000 nM	> 1000 nM	> 1000 nM
C=CC(=O)NC1CC(Oc2cc3c(Nc4ccc(Cl)c(Cl)c4)ncnc3cc2OC)C1 (stereo not drawn) [Compound 73, N-(3-((4-((3,4-dichlorophenyl)amino)-7-methoxyquinazolin-6-yl)oxy)cyclobutyl)acrylamide]	200 to 1000 nM	≤ 200 nM	200 to 1000 nM	≤ 200 nM	> 1000 nM	200 to 1000 nM
C=CC(=O)NC1CC(Oc2cc3c(Nc4ccc(Cl)c(F)c4Cl)ncnc3cc2OC)C1 (stereo not drawn) [Compound 75, N-(3-((4-((2,4-dichloro-3-fluorophenyl)amino)-7-methoxyquinazolin-6-yl)oxy)cyclobutyl)acrylamide]	200 to 1000 nM	200 to 1000 nM	> 1000 nM	≤ 200 nM	200 to 1000 nM	200 to 1000 nM
C=CC(=O)NC1CC(Oc2cc3c(Nc4ccc(F)c(Cl)c4Cl)ncnc3cc2OC)C1 (stereo not drawn) [Compound 76, N-(3-((4-((2,3-dichloro-4-fluorophenyl)amino)-7-methoxyquinazolin-6-yl)oxy)cyclobutyl)acrylamide]	200 to 1000 nM	≤ 200 nM	200 to 1000 nM	≤ 200 nM	> 1000 nM	200 to 1000 nM
C=CC(=O)N[C@H]1C[C@H](Oc2cc3c(Nc4ccccc4F)ncnc3cc2OC)C1 [Compound 77, N-(3-((4-((2-fluorophenyl)amino)-7-methoxyquinazolin-6-yl)oxy)cyclobutyl)acrylamide]	200 to 1000 nM	200 to 1000 nM	> 1000 nM	≤ 200 nM	> 1000 nM	200 to 1000 nM
C=CC(=O)NC1CC(Oc2cc3c(Nc4ccc(Cl)cc4F)ncnc3cc2OC)C1 (stereo not drawn) [Compound 78, N-(3-((4-((4-chloro-2-fluorophenyl)amino)-7-methoxyquinazolin-6-yl)oxy)cyclobutyl)acrylamide]	200 to 1000 nM	≤ 200 nM	> 1000 nM	≤ 200 nM	> 1000 nM	200 to 1000 nM
C=CC(=O)N[C@H]1C[C@H](Oc2cc3c(Nc4ccc(Cl)c(Cl)c4F)ncnc3cc2OC)C1 [Compound 79, N-((1r,3r)-3-((4-((3,4-dichloro-2-fluorophenyl)amino)-7-methoxyquinazolin-6-yl)oxy)cyclobutyl)acrylamide]	200 to 1000 nM	≤ 200 nM	> 1000 nM	≤ 200 nM	> 1000 nM	200 to 1000 nM
C=CC(=O)NC1CC(Oc2cc3c(Nc4ccc5ccccc5c4)ncnc3cc2OC)C1 (stereo not drawn) [Compound 80, N-(3-((7-methoxy-4-(naphthalen-2-ylamino)quinazolin-6-yl)oxy)cyclobutyl)acrylamide]	> 1000 nM	> 1000 nM	> 1000 nM	≤ 200 nM	> 1000 nM	> 1000 nM
C=CC(=O)NC1CC(Oc2cc3c(Nc4cccc5ccccc45)ncnc3cc2OC)C1 (stereo not drawn) [Compound 81, N-(3-((7-methoxy-4-(naphthalen-1-ylamino)quinazolin-6-yl)oxy)cyclobutyl)acrylamide]	200 to 1000 nM	≤ 200 nM	≤ 200 nM	≤ 200 nM	200 to 1000 nM	200 to 1000 nM
C=CC(=O)N[C@H]1C[C@@H](Oc2cc3c(Nc4ccc(Cl)c(Cl)c4)ncnc3cc2OC)C1 [Compound 82, N-((1s,3s)-3-((4-((3,4-dichlorophenyl)amino)-7-methoxyquinazolin-6-yl)oxy)cyclobutyl)acrylamide]	200 to 1000 nM	≤ 200 nM	200 to 1000 nM	≤ 200 nM	200 to 1000 nM	200 to 1000 nM

Continued, values first:

EC50 (Ba/F3 stable cells [1])	EC50 (Ba/F3 stable cells [2])	EC50 (Ba/F3 stable cells [3])	EC50 (Ba/F3 stable cells [4])	EC50 (Ba/F3 stable cells [5])	EC50 (Ba/F3 stable cells [6])	SMILES
200 to 1000 nM	≤ 200 nM	200 to 1000 nM	≤ 200 nM	≤ 200 nM	≤ 200 nM	C#CC(=O)N1C2CCC1CC(Oc1cc3c(Nc4cccc5ccccc45)ncnc3cc1OC)C2 (stereo not drawn) [Compound 60, 1-(3-((7-methoxy-4-(naphthalen-1-ylamino)quinazolin-6-yl)oxy)-8-azabicyclo[3.2.1]octan-8-yl)prop-2-yn-1-one]
200 to 1000 nM	≤ 200 nM	≤ 200 nM	≤ 200 nM	≤ 200 nM	≤ 200 nM	C#CC(=O)N1CCCC(c2ccc3ncnc(Nc4ccc(Cl)c(Cl)c4F)c3c2)C1 (stereo not drawn) [Compound 61, 1-(3-(4-((3,4-dichloro-2-fluorophenyl)amino)quinazolin-6-yl)piperidin-1-yl)prop-2-yn-1-one]
200 to 1000 nM	200 to 1000 nM	200 to 1000 nM	≤ 200 nM	200 to 1000 nM	200 to 1000 nM	C#CC(=O)N1CCC=C(c2ccc3ncnc(Nc4ccc(Cl)c(Cl)c4F)c3c2)C1 [Compound 62, 1-(5-(4-((3,4-dichloro-2-fluorophenyl)amino)quinazolin-6-yl)-3,6-dihydropyridin-1(2H)-yl)prop-2-yn-1-one]
200 to 1000 nM	≤ 200 nM	≤ 200 nM	≤ 200 nM	≤ 200 nM	≤ 200 nM	C#CC(=O)N1CCC=C(c2cc3c(Nc4ccc(Cl)c(Cl)c4F)ncnc3cc2OC)C1 [Compound 63, 1-(5-(4-((3,4-dichloro-2-fluorophenyl)amino)-7-methoxyquinazolin-6-yl)-3,6-dihydropyridin-1(2H)-yl)prop-2-yn-1-one]
≤ 200 nM	≤ 200 nM	200 to 1000 nM	≤ 200 nM	≤ 200 nM	≤ 200 nM	C=CC(=O)N[C@H]1C[C@@H](Oc2cc3c(Nc4ccc(Cl)c(Cl)c4F)ncnc3cc2OC)C1 [Compound 66, N-((1s,3s)-3-((4-((3,4-dichloro-2-fluorophenyl)amino)-7-methoxyquinazolin-6-yl)oxy)cyclobutyl)acrylamide]
200 to 1000 nM	≤ 200 nM	≤ 200 nM	≤ 200 nM	200 to 1000 nM	≤ 200 nM	C=CC(=O)N(C)C1CC(Oc2cc3c(Nc4ccc(Cl)c(Cl)c4F)ncnc3cc2OC)C1 (stereo not drawn) [Compound 72, N-(3-((4-((3,4-dichloro-2-fluorophenyl)amino)-7-methoxyquinazolin-6-yl)oxy)cyclobutyl)-N-methylacrylamide]
≤ 200 nM	≤ 200 nM	200 to 1000 nM	≤ 200 nM	200 to 1000 nM	≤ 200 nM	C=CC(=O)NC1CC(Oc2cc3c(Nc4cccc(Cl)c4F)ncnc3cc2OC)C1 (stereo not drawn) [Compound 74, N-(3-((4-((3-chloro-2-fluorophenyl)amino)-7-methoxyquinazolin-6-yl)oxy)cyclobutyl)acrylamide]
